Source: patent publication US4525360A, “Anti-psychotic phenylindene derivatives and acid addition salts thereof” (Kefalas A/S, priority 1982, dated 1985)
Where a name gives a salt, the structure may show the parent alone.

Key:
[1] = Catalepsy wire mesh, rat, max.; format: in vivo, rats; conditions: Rattus norvegicus, po, 6 h, read-out: Catalep. ED50 (po)
Protocol: Catalepsy wire mesh, rat, max. (ED50 μmol/kg p.o.)
A vertical wire netting (50 cm×49 cm). The meshes (openings) of the netting are square (1 cm×1 cm). The wire diameter is 2 mm.
The animals are labeled and used in groups of five. The test substance is administered orally (p.o.) at 4 dose levels selected from a fixed dose scale.
The animals are placed in the middle of the vertical wire netting 60, 120, 180, 240, 300 and 360 minutes after administration of the test compound. The animals are considered cataleptic when they remain immobile during a period of 15 seconds. This cataleptic reaction is designated +.
If the rats are "atonic" and passively slide down the wire mesh they are considered not cataleptic. If the animals climb up and down the wire mesh they are nor cataleptic. In both situations the designation - is used.

[2] = tested on: 5-HT, rat fundus strip; assay: 5-HT antagonism, rat fundus strip; conditions: Rattus norvegicus, 10 min, read-out: 5HT rat-fundus-strip IC50
Protocol: 5-HT antagonism, rat fundus strip
5-hydroxytryptamine (5-HT).
Rats are killed by a blow on the head and exsanguinated. The stomach fundus is removed and carefully cleaned with Krebs solution at 30° C. The fundus is then stretched over a rounded end of a plastic rod about the thickness of a pencil, whereby the longitudinal direction of the muscle fibers is visible. The fundus is halved by carefully cutting in the central line and in the direction of these fibres. Along this incision two strips with a length of 15-25 mm and with width 1.5-2.5 mm are cut, one from each half of the fundus. The mucosa is then carefully removed. A thread is attached to each end of a strip. One thread is fixed to a pin in the bottom of the organ bath and the other thread is fixed to an isotonic transducer. The strip is kept under a tone of 1.5 to 2.0 g. […] Concentration response curves to 5-HT are obtained by adding 5-HT to the bath in increasing concentrations (0.1 ml of 10^-9 M resulting in 1.0×10^-11 M in the bath, 0.2 ml of 10^-9 M resulting in 3.0×10^-11 M, 0.1 ml of 10^-8 M resulting in about 1×10^-10 M, 0.2 ml of 10^-8 M resulting in about 3×10^-10 M--0.2 ml of 10^-4 resulting in about 3×10^-6 M in the bath). Each concentration of 5-HT is allowed to exert its maximal effect (1-10 min) before the next is added. When the maximal response is reached the tissue is carefully washed. The test substance is added to the bath for 10 min. before examining its effect on a new cumulative 5-HT concentration response curve. From the control concentration effect curve the Km for 5-HT is calculated.
The results are recorded as mean percentage inhibition.
Substrate concentration for 5-HT: 1.0×10^-9 M to 1.0×10^-8 M.
Michaelis-Menten constant for 5-HT is estimated each time.

[3] = tested on: methylphenidate; assay: Methylphenidate antagonism, mice i.p.; format: in vivo; conditions: Mus musculus, ip, read-out: MePh Antag. ED50 (ip)
Protocol: Methylphenidate antagonism (ED50 μmol/kg i.p.)
Perspex observation cages without bottom and lid, consisting of 5 sections each measuring 12×25×30 cm.
Two hours after injection of test substance, methylphenidate, 60 mg/kg, is injected s.c. After administration of methylphenidate the mice are placed in the observation cages, 2 in each cage, where they remain for exactly 1 hour. The cages are placed on corrugated paper, the corrugations facing upwards. It is examined whether the mice have been biting the corrugated paper or not.
The result is stated in fractions: 0/3, 1/3, 2/3 and 3/3 where 0, 1, 2 and 3 are the number of pairs which have not been biting on receipt of the dose in question.

[4] = target: T1, 5-HT2 receptors (Rattus norvegicus, UniProt P14842); assay: 3H-spiroperidol binding to rat cortical membranes (5-HT2 receptors); conditions: Table 1, read-out: 3H-Spiroperidol bindings 5-HT2 receptors IC50
T1 construct: Whole cortex is dissected out and homogenized; from tissue; host or cells: rat whole cortex membranes
Protocol: ^3 H-spiroperidol binding to rat cortical membranes (5-HT2 Receptors)
50 mM Tris buffer pH 7.7 (at 25° C.) (icecold) stored in the cold: 7.38 gram Trisma®--7.7/l.
Mixed Tris buffer (icecold) made fresh every day jut before use.
10^-5 M Mianserin: 3.01 mg mianserin-HCl/10 ml H2 O, Diluted 1:100.
3×10^-6 M Sulpiride: 3.41 mg sulpiride/10 ml H2 O, Diluted 0.3 ml to 100 ml.
Whatman GF/B filters 25 mm.
Spiroperidol[benzene ring--^3 H--] approx. 30 Ci/mmol from New England Nuclear
(Diluted daily to 5 nM in 3×10^-6 M sulpiride solution).
Ultra Turrax homogenizer.
(§1) Rats are killed by guillutination, exsanguinated and their brains removed. Whole cortex is dissected out and homogenized (Ultra Turrax, 10 sec.) in 100 vol (w/v) icecold 50 mM buffer pH 7.7 (at 25° C.). The homogenate is centrifuged twice at 20.000 g (13.000 rpm) for 10 min. at 4° C., with rehomogenization (Ultra Turrax, 10 sec.) of the intermediate pellet in fresh buffer. The pellet is homogenized (Ultra Turrax, 10 sec.) in 80 volumes (w/v) of icecold, freshly prepared mixed Tris buffer.
(§2) Incubation tubes in triplicate receive on ice 100 μl of drugs dissolved in water, 100 μl of 5 nM ^3 H-spiroperidol and 800 μl of the cold membrane suspension. The tubes are incubated at 37° C. for 10 min. and rapidly filtered under vacuum through Whatman GF/B filters. The tubes are rinsed with 5 ml and thereafter the filters with 2×5 ml icecold 50 mM Tris buffer, pH 7.7 (at 25° C.). The radioactivity on the filters is determined by liquid scintillation counting after the addition of 5 ml of picofluor-15. The unspecific binding of ^3 H-spiroperidol is determined by incubating the samples with 10^-6 M mianserine.
Each series consist of 15-16 triple samples (3 controls, 2-3 containing 10^-6 mianserine and two series of test compounds in 5 concentrations).
The means of the control samples and of the 10^-6 M mianserine samples are calculated.

[5] = target: T2, D-2 receptors (Rattus norvegicus, UniProt P61169); assay: 3H-spiroperidol binding to rat striatal membranes (D-2 receptors); conditions: Table 1, read-out: 3H-Spiroperidol bindings DA-2 receptors IC50
T2 construct: The corpora striata are dissected out and homogenized; from tissue; host or cells: rat corpus striatum membranes
Protocol: 3H-spiroperidol binding to rat striatal membranes (D-2 receptors)
0.1% Ascorbic acid (icecold) made fresh every day
50 mM Tris buffer pH 7.7 (at 25° C.) (icecold) stored in the cold
50 mM Tris buffer pH 7.5 (at 25° C.), containing 0.2% ascorbic acid
(icecold) made fresh every day just before use
Mixed Tris buffer (icecold) made fresh every day just before use
96 ml 50 mM Tris pH 7.5 (at 25° C.) containing ascorbic acid
Whatman GF/B filters 25 mm
Spiroperidol[benzene ring-^3 H] approximately 30 Ci/mmol
from New England Nuclear. (Diluted daily to 5 nM in 0.1% ascorbic acid)
as §1, with “The corpora striata are” for “Whole cortex is”, “min” for “min.”, “200” for “80”
as §2, with “0.1% ascorbic acid,” for “water,”, “nM^3” for “nM ^3”, “tissue suspension .” for “membrane suspension.”, “min” for “min.”, “scintillation liquid (e.g. picofluor-15).” for “5 ml of picofluor-15.”, “10^-6M (+)butaclamol.” for “10^-6 M mianserine.”
Each series consists of 15 triple samples (3 controls, 2 containing 10^-6M (+)butaclamol, and two series of test compounds in 5 concentrations).
The means of the controls and (+)butaclamol are calculated.

T2 sequence (P61169 whole entry): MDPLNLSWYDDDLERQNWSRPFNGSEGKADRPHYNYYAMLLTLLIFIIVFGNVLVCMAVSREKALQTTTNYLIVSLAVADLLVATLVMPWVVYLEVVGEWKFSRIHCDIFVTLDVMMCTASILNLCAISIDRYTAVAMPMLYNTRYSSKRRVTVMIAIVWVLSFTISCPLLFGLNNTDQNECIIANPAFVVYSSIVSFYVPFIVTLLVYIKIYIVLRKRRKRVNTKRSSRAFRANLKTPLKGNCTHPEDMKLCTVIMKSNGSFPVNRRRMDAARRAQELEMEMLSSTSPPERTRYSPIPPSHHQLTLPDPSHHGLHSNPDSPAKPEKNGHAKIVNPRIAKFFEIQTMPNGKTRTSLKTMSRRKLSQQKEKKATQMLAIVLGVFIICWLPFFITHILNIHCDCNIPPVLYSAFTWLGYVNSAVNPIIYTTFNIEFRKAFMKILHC
T1 sequence (P14842 whole entry): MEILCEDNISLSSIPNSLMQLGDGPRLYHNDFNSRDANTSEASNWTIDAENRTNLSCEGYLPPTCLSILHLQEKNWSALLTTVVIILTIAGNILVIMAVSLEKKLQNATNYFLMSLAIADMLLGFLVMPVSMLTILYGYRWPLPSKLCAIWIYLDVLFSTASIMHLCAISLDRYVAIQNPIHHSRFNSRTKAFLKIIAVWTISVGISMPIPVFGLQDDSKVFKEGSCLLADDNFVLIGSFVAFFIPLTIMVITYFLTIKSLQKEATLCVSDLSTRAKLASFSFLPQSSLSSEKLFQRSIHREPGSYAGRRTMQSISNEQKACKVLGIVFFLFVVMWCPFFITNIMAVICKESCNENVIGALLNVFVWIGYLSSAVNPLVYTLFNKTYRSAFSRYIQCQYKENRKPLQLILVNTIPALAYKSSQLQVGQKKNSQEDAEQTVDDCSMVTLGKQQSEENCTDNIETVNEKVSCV

CN1CCC(C2=CC(c3ccc(F)cc3)c3ccc(C(F)(F)F)cc32)CC1 (centres unmarked) [Lu 20-071, 3-(4'-Fluorophenyl)-1-(1-methyl-4-piperidyl)-6-trifluoromethyl-1-indene, hydrobromide]
ED50 [1]: 2 µmol/kg | IC50 [2]: 1000 nM | ED50 [3]: 1.7 µmol/kg | IC50 [4]: 15 nM

CSc1ccc2c(c1)C(N1CCN(C)CC1)Cc1ccccc1S2 (centres unmarked) [Methiothepin, reference compound]
ED50 [1]: 2.3 µmol/kg | IC50 [2]: 58 nM | ED50 [3]: 2.5 µmol/kg | IC50 [5]: 2.6 nM | IC50 [4]: 6.8 nM

O=C1NCCN1CCN1CCC(C2C=C(c3ccc(F)cc3)c3ccc(F)cc32)CC1 (centres unmarked) [Lu 20-053, 6-Fluoro-3-(4'-fluorophenyl)-1-(1-(2-imidazolidinon-1-ylethyl)-4-piperidyl)-2-indene]
ED50 [1]: > 94 µmol/kg | IC50 [2]: 69 nM | ED50 [3]: 19.5 µmol/kg | IC50 [5]: 83 nM | IC50 [4]: 31 nM

Cc1ccc2c(c1)C(C1=CCN(CCO)CC1)=CC2c1ccc(F)cc1 (centres unmarked) [Lu 19-153, 3-(4'-Fluorophenyl)-1-(1-hydroxyethyl-1,2,3,6-tetrahydropyrid-4-yl)-6-methyl-1-indene, hydrobromide]
ED50 [1]: 1.4 µmol/kg | IC50 [2]: 34 nM | ED50 [3]: 0.39 µmol/kg | IC50 [4]: 4.6 nM

OCCN1CC=C(C2=CC(c3ccc(F)cc3)c3ccc(C(F)(F)F)cc32)CC1 (centres unmarked) [Lu 20-004, 3-(4'-Fluorophenyl)-1-(1-hydroxyethyl-1,2,3,6-tetrahydropyrid-4-yl)-6-trifluoromethyl-1-indene, hydrobromide]
ED50 [1]: 1.3 µmol/kg | IC50 [2]: 3260 nM | ED50 [3]: 1 µmol/kg | IC50 [4]: 35 nM

OCCN1CCC(C2=CC(c3ccc(F)cc3)c3ccc(F)cc32)CC1 (centres unmarked) [Lu 19-158, hydrochloride]
ED50 [1]: 26 µmol/kg | IC50 [2]: 26 nM | ED50 [3]: 4.2 µmol/kg | IC50 [5]: 12 nM | IC50 [4]: 2.8 nM

OCCN1CCN(CC/C=C2/c3ccccc3Sc3ccc(C(F)(F)F)cc32)CC1 [Cis(Z)-flupentixol, reference compound]
ED50 [1]: 2.1 µmol/kg | IC50 [2]: 1050 nM | ED50 [3]: 0.14 µmol/kg | IC50 [4]: 13 nM

Cc1ccc2c(c1)C(C1CCN(CCO)CC1)=CC2c1ccc(F)cc1 (centres unmarked) [Lu 20-008, 3-(4'-Fluorophenyl)-1-(1-hydroxyethyl-4-piperidyl)-6-methyl-1-indene, hydrochloride]
ED50 [1]: 2.3 µmol/kg | IC50 [2]: 16 nM | ED50 [3]: 0.64 µmol/kg | IC50 [5]: 8.9 nM | IC50 [4]: 4 nM

O=C(c1ccc(F)cc1)C1CCN(CCn2c(=O)[nH]c3ccccc3c2=O)CC1 [Ketanserin, reference compound]
IC50 [2]: > 10000 nM | IC50 [5]: 2300 nM
